This is an account of results in US20140005164A1, “WNT PATHWAY ANTAGONISTS” (Siena Biotech S.p.A., priority 2011, published 2014).

One assay has as its system Wnt/β-catenin pathway. The experiment in a line: Wnt reporter assay (TCF-Luciferase, Firefly) in DBTRG-05MG cells. The assay is classed as cell-based. As to conditions: Homo sapiens, TCF-Luciferase (Firefly) read out, 24 hours after compound addition, range given with mixed units nM and μM, read-out: IC50 value in the reporter assay. Summed up: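 DBTRG-05MG cells carrying a 3×(4×TCF)-driven Firefly luciferase reporter, with Renilla also read, were plated 36 h before an 8-point compound dilution series (0.6% DMSO). Lysis and Dual-Luciferase readout followed 24 h after compound addition. Firefly and Renilla were each expressed as % of control and fitted to a four-parameter sigmoid.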
A general note: A reporter such as luciferase makes a cellular process visible.

The next assay relates to DBTRG cells. Put plainly: Soft agar anchorage independent assay. The assay is classed as cell-based. As to conditions: 504 h; DBTRG colonies scored 3 weeks after plating; range over the listed examples, given with mixed units nM and μM. On the procedure:
DBTRG cells were seeded into a 24-well format in the presence of […] carrier alone or compound (0.6% DMSO (v/v)). Each well is composed of two agar layers: the bottom layer consists of 0.6% Agar while the top has 0.35% Agar plus cells and compound. Cells (2500 per well) were incubated with […] dilution compound the day of the plating and the colonies were scored 3 weeks later after o/n staining with MTT solution. Imaging and counting of the colonies was done with the GelCount™ instrument (Oxford Optronix, UK). For IC50 determination the data were expressed as % of control, values were calculated using XLFit version 4.2, with a four parameters sigmoid 5 function (XLFit model 205).

Structures are written as SMILES.

Usually IC50 stands for the concentration needed to halve the response being measured. With `COc1cc2c(cc1F)n(C)c(=O)n2C[C@H]1CC[C@H](C(=O)Nc2ccncc2)CC1` [Example 1, Trans-4-(5-Fluoro-6-Methoxy-3-methyl-2-oxo-2,3-dihydro-benzoimidazol-1-ylmethyl)-cyclohexanecarboxylic acid pyridine-4-ylamide], the IC50 was 35 to 23000 nM with Wnt/β-catenin pathway and 32 to 2900 nM with DBTRG cells.

Regarding `COc1ccc2c(c1)n(C[C@H]1CC[C@H](C(=O)N3C[C@@H](C)O[C@@H](C)C3)CC1)c(=O)n2C` [Example 61], the 50% inhibitory concentration (IC50) in the assay with Wnt/β-catenin pathway lay in the range of 35 to 23000 nM; with DBTRG cells it was 32 to 2900 nM.

`COCCOc1cc2c(cc1F)n(C)c(=O)n2C[C@H]1CC[C@H](c2nnc(-c3cnn(C)c3)o2)CC1` [Example 185]: the half-inhibitory concentration (IC50) in the assay on Wnt/β-catenin pathway fell in the range of 35 to 23000 nM; with DBTRG cells, 32 to 2900 nM.

For the compound `COc1ccc2c(c1)n(C[C@H]1CC[C@H](c3cc(-c4cnn(C)c4)n[nH]3)CC1)c(=O)n2C` [Example 153], the IC50 in the assay on Wnt/β-catenin pathway lay within 35 to 23000 nM; with DBTRG cells it was 32 to 2900 nM.

Regarding `COc1ccc2c(c1)n(C[C@H]1CC[C@H](c3nnc(-c4cnn(C)c4)o3)CC1)c(=O)n2C` [Example 106], the IC50 with Wnt/β-catenin pathway was 35 to 23000 nM; with DBTRG cells, 32 to 2900 nM.

In the case of `Cn1c(=O)n(C[C@H]2CC[C@H](C(=O)Nc3ccncc3)CC2)c2cc(OCCN3CCOCC3)ccc21` [Example 152], the IC50 was in the range of 35 to 23000 nM in the assay with Wnt/β-catenin pathway and 32 to 2900 nM in the assay on DBTRG cells.

With `COc1ccc2c(c1)n(C[C@H]1CC[C@H](C(=O)Nc3ccncc3)CC1)c(=O)n2C` [Example 29], the IC50 in the assay with Wnt/β-catenin pathway lay in the range of 35 to 23000 nM; in the assay on DBTRG cells it was 32 to 2900 nM.

For the compound `COCCOc1ccc2c(c1)n(C[C@H]1CC[C@H](C(=O)Nc3ccnnc3)CC1)c(=O)n2C` [Example 121], the 50% inhibitory concentration (IC50) lay in the range of 35 to 23000 nM with Wnt/β-catenin pathway and 32 to 2900 nM in the assay on DBTRG cells.

For `COc1cc2c(cc1F)n(C)c(=O)n2C[C@H]1CC[C@H](C(=O)N2CCN(C(C)=O)CC2)CC1` [Example 161], the figures for the IC50 in the assay on Wnt/β-catenin pathway and in the assay on DBTRG cells were 35 to 23000 nM and 32 to 2900 nM, respectively.

On to `C#Cc1ccc2c(c1)n(C[C@H]1CC[C@H](C(=O)N3CCN(C(C)=O)CC3)CC1)c(=O)n2C` [Example 14, 3-[trans-4-(4-Acetyl-piperazine-1-carbonyl)-cyclohexylmethyl]-5-ethynyl-1-methyl-1,3-dihydro-benzoimidazol-2-one], for which the values for the IC50 in the assay with Wnt/β-catenin pathway and with DBTRG cells were 35 to 23000 nM and 32 to 2900 nM, respectively.

Turning to `COCCOc1ccc2c(c1)n(C[C@H]1CC[C@H](C(=O)N3CCN(C(C)=O)CC3)CC1)c(=O)n2C` [Example 71], the IC50 in the assay on Wnt/β-catenin pathway was 35 to 23000 nM; in the assay on DBTRG cells it was 32 to 2900 nM.

For `COc1cc2c(cc1F)n(C)c(=O)n2C[C@H]1CC[C@H](c2nnc(-c3cnn(C)c3)o2)CC1` [Example 182], the values for the half-maximal inhibitory concentration (IC50) in the assay on Wnt/β-catenin pathway and with DBTRG cells were 35 to 23000 nM and 32 to 2900 nM, respectively.

For the compound `COCCOc1ccc2c(c1)n(C[C@H]1CC[C@H](C(=O)Nc3ccncc3)CC1)c(=O)n2C` [Example 72], the values for the concentration for half-maximal inhibition (IC50) in the assay on Wnt/β-catenin pathway and with DBTRG cells were 35 to 23000 nM and 32 to 2900 nM, respectively.

Take `CC(=O)N1CCN(C(=O)[C@H]2CC[C@H](Cn3c(=O)n(C)c4ccc(C5CC5)cc43)CC2)CC1` [Example 68]: the values for the 50% inhibitory concentration (IC50) in the assay on Wnt/β-catenin pathway and in the assay with DBTRG cells were 35 to 23000 nM and 32 to 2900 nM, respectively.

`COCCOc1cc2c(cc1F)n(C)c(=O)n2C[C@H]1CC[C@H](C(=O)Nc2ccncc2)CC1` [Example 186]: the half-maximal inhibitory concentration (IC50) fell in the range of 35 to 23000 nM with Wnt/β-catenin pathway and 32 to 2900 nM with DBTRG cells.

For the compound `Cn1c(=O)n(C[C@H]2CC[C@H](C(=O)Nc3ccncc3)CC2)c2cc(C(F)(F)F)ccc21` [Example 22], the IC50 in the assay with Wnt/β-catenin pathway was in the range of 35 to 23000 nM; with DBTRG cells, 32 to 2900 nM.

For `COCCOc1ccc2c(c1)n(C[C@H]1CC[C@H](c3nnc(-c4cnn(C)c4)o3)CC1)c(=O)n2C` [Example 147], the half-maximal inhibitory concentration (IC50) with Wnt/β-catenin pathway was 35 to 23000 nM; with DBTRG cells it was 32 to 2900 nM.

Take `COCC#Cc1ccc2c(n1)n(C[C@H]1CC[C@H](C(=O)Nc3ccncc3)CC1)c(=O)n2C` [Example 115]: the concentration for half-maximal inhibition (IC50) lay in the range of 35 to 23000 nM with Wnt/β-catenin pathway and 32 to 2900 nM with DBTRG cells.

For the compound `COCCOc1ccc2c(n1)n(C[C@H]1CC[C@H](c3nnc(-c4cnn(C)c4)o3)CC1)c(=O)n2C` [Example 180], the 50% inhibitory concentration (IC50) with Wnt/β-catenin pathway lay within 35 to 23000 nM.

For the compound `COc1ccc2c(c1)n(C[C@H]1CC[C@H](c3nnc(-c4cc(C)nn4C)o3)CC1)c(=O)n2C` [Example 149], in the assay on Wnt/β-catenin pathway, the IC50 lay within 35 to 23000 nM.

As for `Cc1cc(NC(=O)[C@H]2CC[C@H](Cn3c(=O)n(C)c4cc(Cl)ccc43)CC2)ccn1` [Example 48], the IC50 in the assay on Wnt/β-catenin pathway was 35 to 23000 nM.

For `COc1ccc2c(c1)n(C[C@H]1CC[C@H](c3nnc(-c4ccnnc4)o3)CC1)c(=O)n2C` [Example 164], the IC50 in the assay on Wnt/β-catenin pathway is 35 to 23000 nM.

For `Cn1c(=O)n(C[C@H]2CC[C@H](C(=O)Nc3ccncc3)CC2)c2nc(Br)ccc21` [Example 116], the IC50 with Wnt/β-catenin pathway fell in the range of 35 to 23000 nM.

As to `CCOCc1nnc([C@H]2CC[C@H](Cn3c(=O)n(C)c4ccc(OC)cc43)CC2)o1` [Example 107], in the assay on Wnt/β-catenin pathway, the IC50 was 35 to 23000 nM.

With `Cn1cc(-c2nnc([C@H]3CC[C@H](Cn4c(=O)n(C)c5ccc(C#N)cc54)CC3)o2)cn1` [Example 162], the half-maximal inhibitory concentration (IC50) in the assay with Wnt/β-catenin pathway is 35 to 23000 nM.
